Measurements taken from US20190100534A1, “Cephem Compounds with Latent Reactive Groups” (Gladius Pharmaceuticals, Inc., priority 2017, published 2019).

Key:
Test in all cases: MIC determination, isogenic E. coli strains
Format in all cases: cell-based
[1] = system: Isogenic E. coli J58 strain carrying IMP-1; details: for MIC: Escherichia coli, 18 h, read-out: Mimimum Inhibitory Concentrations, IMP-1
Description: (§1) Sterile technique was used throughout these experiments. Suspensions of organisms were removed from storage (−80° C.) and partially thawed. Partially thawed organisms (1 μL) were inoculated into 3 mL sterile LB Broth in a sterile culture tube and capped, then cultured at 37° C. with shaking for 4-5 hours until the optical density at 600 nm (OD600) was greater than 0.1 on a single beam spectrophotometer.
(§2) The concentration of organisms was adjusted to 0.08-0.1 OD600 (0.5 McFarland units) by dilution with sterile cation-adjusted Meuller-Hinton (CAMH) broth. The suspensions were used within 30 minutes of preparation.
(§3) A stock solution was made of each test compound by measuring 6.4 mg of the compound on an analytical balance and dissolving it in DMSO (1 mL) to get a transparent solution. The solutions were stored at −20° C. and thawed prior to use.
(§4) Sterile CAMH broth (200 μL) containing 20 μM Apo-Transferrin was pipetted into the first row of 8 columns of a sterile, round-bottomed, transparent, 96-well microplate using an 8-channel pipette equipped with sterile tips. One hundred μL was pipetted into the wells of the remaining 11 rows.
(§5) With an 8-channel pipette equipped with sterile tips, 100 μL of the first row solution was transferred to the second row and mixed. The process was repeated for the second to third rows and continued through row 11. One hundred μL from row 11 was removed and discarded so that all 12 rows contained 100 μL. Row 12 contained no compound and rows 1-11 contained 64, 32, 16, 8, 4, 2, 1, 0.5, 0.25, 0.125, […] of a given compound.
(§6) Inoculant suspensions (0.5 μL) were added to the 12 wells of each column. The plates were then covered and incubated at 37° C. overnight for 18 hours.
(§7) For each organism the MIC was determined by identifying the transparent well with the lowest test compound concentration.
IMP-1 (Group 3a carbapenemase, metallo-beta-Lactamase).
(§8) The gene sequence for each beta-lactamase enzyme was synthesized and inserted into the pBC-SK(+) plasmid by GenScript, a commercial service. E. coli J53 was transformed with each plasmid via electroporation and resistant transformants were selected on agar plates containing 50 micrograms/mL ampicillin. The selected transformants were stored at −80 degrees C. in 20% glycerol.

[2] = system: Isogenic E. coli J58 strain carrying KPC-2; details: for MIC: Escherichia coli, 18 h, read-out: Mimimum Inhibitory Concentrations, KPC-2
Description: as §1, §2, §3, §4, §5, §6, §7
(§9) KPC-2 and KPC-3 (Class A, Group 2f, carbapenemases);
as §8

[3] = system: Isogenic E. coli J58 strain carrying KPC-3; details: for MIC: Escherichia coli, 18 h, read-out: Mimimum Inhibitory Concentrations, KPC-3
Description: as §1, §2, §3, §4, §5, §6, §7, §9, §8

[4] = system: Isogenic E. coli J58 strain carrying NDM-1; details: for MIC: Escherichia coli, 18 h, read-out: Mimimum Inhibitory Concentrations, NDM-1
Description: as §1, §2, §3, §4, §5, §6, §7
NDM-1 (Group 3a carbapenemase, broad spectrum divalent Zn^++ metallo-Beta-Lactamase);
as §8

[5] = system: Isogenic E. coli J58 strain carrying DHA-1; details: for MIC: Escherichia coli, 18 h, read-out: Mimimum Inhibitory Concentrations, DHA-1
Description: as §1, §2, §3, §4, §5, §6, §7, §8

E. coli J53 Alone = details: for Mimimum Inhibitory Concentrations, J53 Alone: CAMH broth, 20 μM Apo-Transferrin, 37° C., 18 hours; for MIC: Escherichia coli, J53ALONE, 18 h, read-out: Mimimum Inhibitory Concentrations, J53 Alone
Description: as §1, §2, §3, §4, §5, §6, §7, §8

[6] = system: Isogenic E. coli J58 strain carrying CTX-M-14; details: for MIC: Escherichia coli, 18 h, read-out: Mimimum Inhibitory Concentrations, CTX-M-14
Description: as §1, §2, §3, §4, §5, §6, §7
(§10) CTX-M-14 and CTX-M-15 (Class A, Group 2be beta-lactamases, hydrolyzes extended spectrum cephalosporins and monobactams);
as §8

[7] = system: Isogenic E. coli J58 strain carrying CTX-M-15; details: for MIC: Escherichia coli, 18 h, read-out: Mimimum Inhibitory Concentrations, CTX-M-15
Description: as §1, §2, §3, §4, §5, §6, §7, §10, §8

[8] = system: Isogenic E. coli J58 strain carrying SHV-1; details: for MIC: Escherichia coli, 18 h, read-out: Mimimum Inhibitory Concentrations, SHV-1
Description: as §1, §2, §3, §4, §5, §6, §7
SHV-1 (Class A, Group 2b beta-lactamase, hydrolyzes penicillins and early cephalosporins);
as §8

[9] = system: Isogenic E. coli J58 strain carrying TEM-26; details: for MIC: Escherichia coli, 18 h, read-out: Mimimum Inhibitory Concentrations, TEM-26
Description: as §1, §2, §3, §4, §5, §6, §7
TEM-26 (Group 2be beta-lactamase, hydrolyzes extended spectrum cephalosporins and monobactams), [25];
as §8

[10] = system: Isogenic E. coli J58 strain carrying VIM-2; details: for MIC: Escherichia coli, 18 h, read-out: Mimimum Inhibitory Concentrations, VIM-2
Description: as §1, §2, §3, §4, §5, §6, §7
VIM-2 (Group 3a carbapenemase, metallo-beta-lactamase); and
as §8

Row | SMILES | Mimimum Inhibitory Concentrations, J53 Alone (E. coli J53 Alone; Table 4-2) [microgram/mL] | MIC [1] [µg/mL] | MIC [2] [µg/mL] | MIC [3] [µg/mL] | MIC [4] [µg/mL] | MIC [5] [µg/mL] | MIC (E. coli J53 Alone) [µg/mL] | MIC [6] [µg/mL] | MIC [7] [µg/mL] | MIC [8] [µg/mL] | MIC [9] [µg/mL] | MIC [10] [µg/mL] | also measured
1 | CO/N=C(\C(=O)N[C@@H]1C(=O)N2C(C(=O)O)=C(C=Cc3ccc(C[n+]4ccc(OC)c(OC)c4)cc3[N+](=O)[O-])CS[C@H]12)c1csc(N)n1 (mixture of isomers) [Compound 392, 1-(4-((E/Z)-2-((6R,7R)-7-((Z)-2-(2-aminothiazol-4-yl)-2-(methoxyimino)acetamido)-2-carboxy-8-oxo-5-thia-1-azabicyclo[4.2.0]oct-2-en-3-yl)vinyl)-3-nitrobenzyl)-3,4-dimethoxypyridin-1-ium] | 64 | – | – | – | – | – | – | – | – | – | – | – | Mimimum Inhibitory Concentrations, IMP-1 ([1]; isogenic E. coli strain, IMP-1, CAMH broth, 20 μM Apo-Transferrin, 37° C., 18 hours): >64 microgram/mL; Mimimum Inhibitory Concentrations, KPC-2 ([2]; isogenic E. coli strain, KPC-2, CAMH broth, 20 μM Apo-Transferrin, 37° C., 18 hours): >64 microgram/mL; Mimimum Inhibitory Concentrations, KPC-3 ([3]; isogenic E. coli strain, KPC-3, CAMH broth, 20 μM Apo-Transferrin, 37° C., 18 hours): >64 microgram/mL; Mimimum Inhibitory Concentrations, NDM-1 ([4]; isogenic E. coli strain, NDM-1, CAMH broth, 20 μM Apo-Transferrin, 37° C., 18 hours): >64 microgram/mL; Mimimum Inhibitory Concentrations, DHA-1 ([5]; isogenic E. coli strain, DHA-1, CAMH broth, 20 μM Apo-Transferrin, 37° C., 18 hours): >64 microgram/mL; Mimimum Inhibitory Concentrations, J53 Alone (E. coli J53 Alone; Table 4-1): 64 microgram/mL; Mimimum Inhibitory Concentrations, CTX-M-14 ([6]; isogenic E. coli strain, CTX-M-14, CAMH broth, 20 μM Apo-Transferrin, 37° C., 18 hours): >64 microgram/mL; Mimimum Inhibitory Concentrations, CTX-M-15 ([7]; isogenic E. coli strain, CTX-M-15, CAMH broth, 20 μM Apo-Transferrin, 37° C., 18 hours): >64 microgram/mL; Mimimum Inhibitory Concentrations, SHV-1 ([8]; isogenic E. coli strain, SHV-1, CAMH broth, 20 μM Apo-Transferrin, 37° C., 18 hours): >64 microgram/mL; Mimimum Inhibitory Concentrations, TEM-26 ([9]; isogenic E. coli strain, TEM-26, CAMH broth, 20 μM Apo-Transferrin, 37° C., 18 hours): 32 microgram/mL; Mimimum Inhibitory Concentrations, VIM-2 ([10]; isogenic E. coli strain, VIM-2, CAMH broth, 20 μM Apo-Transferrin, 37° C., 18 hours): >64 microgram/mL
2 | COc1cc[n+](Cc2ccc(C=CC3=C(C(=O)O)N4C(=O)[C@@H](NC(=O)/C(=N\OC(C)(C)C(=O)O)c5csc(N)n5)[C@H]4SC3)cc2)cc1OC (mixture of isomers) [Compound 402, 1-(4-((E/Z)-2-((6R,7R)-7-((Z)-2-(2-aminothiazol-4-yl)-2-(((2-carboxypropan-2-yl)oxy)imino)acetamido)-2-carboxy-8-oxo-5-thia-1-azabicyclo[4.2.0]oct-2-en-3-yl)vinyl)benzyl)-3,4-dimethoxypyridin-1-ium] | 0.5 | > 64 | 64 | 16 | > 64 | 1 | 0.5 | 4 | > 64 | 2 | 4 | 4 | –
3 | Cn1c[n+](Cc2ccc(C=CC3=C(C(=O)O)N4C(=O)[C@@H](NC(=O)/C(=N\OC(C)(C)C(=O)O)c5csc(N)n5)[C@H]4SC3)cc2)c2cc(O)c(O)cc21 (mixture of isomers) [Compound 415, 3-(4-((E/Z)-2-((6R,7R)-7-((Z)-2-(2-aminothiazol-4-yl)-2-(((2-carboxypropan-2-yl)oxy)imino)acetamido)-2-carboxy-8-oxo-5-thia-1-azabicyclo[4.2.0]oct-2-en-3-yl)vinyl)benzyl)-5,6-dihydroxy-1-methyl-1H-benzo[d]imidazol-3-ium] | 0.5 | 16 | 16 | 8 | > 64 | 0.5 | 0.5 | 2 | 1 | 1 | 1 | 1 | –
